How the values were obtained:
collagen III = experiment: Staining and immunolabelling of skin explant sections: collagen III; format: cell-based, human; details: treated skin explant sections
Protocol: 1. Preparation of the explants • During abdominoplasty of a person, 45 skin explants were prepared. The explants were put in BEM medium (BIO-EC's Explants Medium) for survival at 37° C. in humid atmosphere, enriched with 5% CO2.
2. Application of the products • The solutions are prepared in DMSO from pure products, in order to obtain final concentrations of […] by incorporating an identical volume of 10 μl in each well and for each treatment. The treatment was carried out in the survival medium on days 0, 1, 2, 5 and 7.
3. Taking samples • On D0, the 3 explants of batch TO were taken and each explant was cut in two. One part was fixed in buffered formol for observation of the general morphology. The other was frozen and stored at −80° C. • On D5 and D9, 3 explants from each batch were taken and treated in the same way.
4. Histological treatment • After fixation for 48 hours in buffered formol, the samples were dehydrated and embedded in paraffin using a Leica 1020 automatic dehydrator. They were embedded according to procedure MO-H-153 using a Leica EG 1160 coating station. Sections of 5 μm were prepared according to procedure MO-H-173 using a Minot-type microtome, Leica RM 2125 and mounted on Superfrost® histological glass slides.
6. Staining and immunolabelling
Immunolabelling will be carried out on sections with the appropriate antibody. […]

PPARγ (h) [1] = target: T1, PPARγ (h) (Homo sapiens, UniProt P37231); experiment: PPARγ agonist effect, coactivator Alpha screen; format: biochemical
T1 construct: Cerep (contract laboratory that ran the assay)
T1 sequence (P37231 1-505): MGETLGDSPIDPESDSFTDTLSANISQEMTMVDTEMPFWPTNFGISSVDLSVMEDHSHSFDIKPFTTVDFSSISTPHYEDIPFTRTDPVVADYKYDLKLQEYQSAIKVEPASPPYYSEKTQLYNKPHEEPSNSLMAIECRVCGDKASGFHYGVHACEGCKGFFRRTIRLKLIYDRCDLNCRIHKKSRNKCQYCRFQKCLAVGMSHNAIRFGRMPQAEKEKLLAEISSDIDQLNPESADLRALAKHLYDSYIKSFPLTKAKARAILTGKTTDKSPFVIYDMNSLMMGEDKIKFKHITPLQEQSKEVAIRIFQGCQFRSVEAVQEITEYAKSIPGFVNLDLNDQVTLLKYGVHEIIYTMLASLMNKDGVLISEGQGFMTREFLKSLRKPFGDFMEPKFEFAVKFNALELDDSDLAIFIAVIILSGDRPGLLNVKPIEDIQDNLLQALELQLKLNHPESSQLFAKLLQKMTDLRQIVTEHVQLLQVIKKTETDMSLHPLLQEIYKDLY
Protocol: (§1) The agonist or antagonist activity of compound 1 on the PPAR receptors was tested by fluorescence techniques. • Material and Methods
(§2) The results are expressed as: • percentage of control specific agonist response (measured specific response/control specific agonist response)×100) and • percentage inhibition of the control specific agonist response (100−((measured specific response)/control specific agonist response)×100)) obtained in the presence of compound 1.
(§3) The EC50 values (concentration at which the maximum specific response is 50%) and the IC50 values (concentration at which the maximum control specific agonist response is inhibited by 50%) are determined by non-linear regression analysis of the concentration-response curves with a mean replicated value using adjustment of Hill's equation

[2] = tested on: normal human dermal fibroblasts; experiment: Neosynthesis of sulphated GAGs ([35S]-sulphate incorporation) in dermal fibroblasts; format: cell-based; details: monolayer of normal human dermal fibroblasts
Protocol: The effects of this compound were evaluated on a monolayer of normal human dermal fibroblasts by measuring the neosynthesis of glycosaminoglycans designated as sulphated GAGs (incorporation of [^35S]-sulphate). […] This might explain the effect of dermal reinforcement already observed on skin explants ex vivo.

PPARγ (h) [3] = target: T1, PPARγ (h); experiment: PPARγ antagonist effect, coactivator Alpha screen; format: biochemical
Protocol: as §1, §2, §3
For the antagonists, the apparent dissociation constants (KB) were calculated using the modified Cheng-Prusoff equation

[4] = tested on: HSPB1, heat shock protein beta-1; experiment: RT-qPCR expression of HSPB1 in keratinocytes; format: cell-based, human; details: 10 μM
Protocol: (§4) The expression of the specific markers was evaluated by RT-qPCR (reverse transcription quantitative polymerase chain reaction) on messenger RNAs extracted from the cell lawns from each treatment. The transcriptomic profile contains 64 genes selected for their importance in keratinocyte differentiation. The PCR reactions (polymerase chain reactions) were carried out by quantitative PCR with the “Light Cycler” system (Roche Molecular System Inc.) according to the procedures recommended by the supplier. Normal human epidermal keratinocytes were incubated in the presence of compound 1 or a reference with calcium chloride. The expression of the specific markers was evaluated by RT-qPCR on the messenger RNAs extracted from the cell lawns from each treatment.

prostaglandin E2 (PGE2) = experiment: Release of PGE2 by NCTC-2544 keratinocytes stimulated by PMA; format: cell-based, human; details: NCTC-2544 stimulated by PMA
Protocol: The effects of compound 1 were evaluated on two routes of inflammation, the “chemokine” route and the “prostaglandin” route, by measuring the release of interleukin-8 (IL-8) and of prostaglandin E2 (PGE2) by a human keratinocyte line NCTC-2544 stimulated by phorbol-myristate acetate (PMA).

[5] = tested on: normal human epidermal keratinocytes; experiment: Differential expression PCR arrays (RT-qPCR) of keratinocyte differentiation markers; format: cell-based; details: 10 μM
Protocol: as §4

Transglutaminase K, TGK = experiment: In situ immunolabelling of TGK in keratinocytes; format: cell-based; details: normal human epidermal keratinocytes
Description: Transglutaminase K, TGK, and filaggrin are two protein markers of epidermal differentiation involved in arrangement of the keratin filaments and formation of the envelope of the stratum corneum.

Oc1ccccc1CCOc1ccc(F)cc1 [Compound 1, 2-[2-(4-fluoro-phenoxy)-ethyl]-phenol]
Collagen III in the papillary dermis (collagen III): very slight densification
% Control agonist response (PPARγ (h) [1]; 10^−5 M): 0%
% Control agonist response (PPARγ (h) [1]; 10^−6 M): 0%
% Control agonist response (PPARγ (h) [1]; 10^−7 M): 0%
PPARγ agonist activity (conclusion in words) (PPARγ (h) [1]; 10^−7 to 10^−5 M): not an agonist
Neosynthesis of sulphated GAGs [2]: stimulated the neosynthesis of sulphated GAGs, in a non-concentration-dependent fashion
inhibition at 10 µM (PPARγ (h) [3]; 10^−5 M, read-out: % Inhibition of control agonist response): 0%
inhibition at 1 µM (PPARγ (h) [3]; 10^−6 M, read-out: % Inhibition of control agonist response): 0%
inhibition at 0.1 µM (PPARγ (h) [3]; 10^−7 M, read-out: % Inhibition of control agonist response): 3%
PPARγ antagonist activity (conclusion in words) (PPARγ (h) [3]; 10^−7 to 10^−5 M): not an antagonist
Expression of the stress protein HSPB1 [4]: inhibition of expression
Release of PGE2 (prostaglandin E2 (PGE2)): concentration-dependent inhibition
Effect on keratinocyte differentiation (conclusion) [5]: pro-differentiating effect
Stimulation of expression of markers involved in lipid synthesis, antimicrobial defence, innate immunity and cell-cell interactions ([5]; compared with calcium chloride at 1.5 mM): less, but similar to calcium chloride at 1.5 mM
Protein expression of TGK (Transglutaminase K, TGK): concentration-dependent stimulation of protein expression

From patent US20150004110A1, “NOVEL ANTI-AGING AND DEPIGMENTING COSMETIC COMPOSITIONS” (DIVERCHIM, priority 2011, published 2015)
